Assay results reported in article PMC7551771, “In-Depth In Silico Search for Cuttlefish (Sepia officinalis) Antimicrobial Peptides Following Bacterial Challenge of Haemocytes” (Marine Drugs, 2020).
Read-outs that look alike come from different tables or passages of the source. No end group written: not given here.

Experiments:
[1] = tested on: Escherichia coli (CIP 54.8T); assay: microbe, parasite or virus in culture; assay type: cell-based
Description: (§1) The minimal growth inhibitory concentrations (MICs) of synthetic peptides (Genecust) were evaluated on Vibrio alginolyticus (CIP 109819), V. splendidus (CIP 107715), V. aestuerianus (CIP 102971), V. anguillarum (CIP 64.14), V. parahaemolyticus (CIP 73.30), Halomonas aquamarina (CIP 105454T), Escherichia coli (CIP 54.8T), Aeromonas salmonicida (CIP 103209T), Enteroccocus faecalis (CIP 76.117) and Lactococcus garvieae (CIP 104369) obtained from the “Collection de l’Institut Pasteur”. Bacteria were cultured in adapted media: Homemade marine broth (HMB, sea salts 20 g/L, peptone 5 g/L, yeast extract 3 g/L) for Vibrio species and H. aquamarina; Luria-Bertani (peptone 10 g/L, yeast extract 5 g/L, NaCl 10 g/L) for E. faecalis and E. coli; Trypticasein Soy Broth (TSB, Conda, 40 g/L) for A. salmonicida, and Brain Heart Infusion (BHI) (Conda, 37 g/L) for L. garvieae. MICs were determined in triplicate by liquid growth inhibition assays adapted from Hetru and Bulet. Briefly, 10 µL of peptide solution were incubated in Bioscreen honeycomb-well plates with 90 µl of bacterial suspension at a starting OD600 of 0.001 in BHI for L. garvieae, poor broth (peptone 10 g/L, NaCl 5 g/L) for E. faecalis and E. coli, TSB for A. salmonicida, HMB for H. aquamarina and saline poor broth (peptone 10 g/L, NaCl 15 g/L) for Vibrio species. Bacterial growth was monitored for 16 h by measuring OD600 values every 5 min (Bioscreen C, Labsystem, Finland). The peptides were tested alone at concentrations of 5 µM, 10 µM, 20 µM and 50 µM. For synergy, peptides pairs were tested at concentrations of 5 µM, 10 µM and 20 µM. Oxytetracycline at 5 µM and 10 µM was used as a positive control, and water was used as a blank. MICs were expressed in µM as an [a]–[b] concentration interval where [a] was the last concentration with bacterial growth and [b] was the first concentration with 100% bacterial growth inhibition. MBCs (minimal bactericidal concentrations) were expressed in µM as an [a]–[b] concentration interval where [a] was the last concentration with bacterial growth and [b] was the first concentration that killed 100% of the bacteria.

[2] = tested on: Vibrio alginolyticus (CIP 109819); assay: microbe, parasite or virus in culture; assay type: cell-based
Description: as §1

[3] = tested on: V. splendidus (CIP 107715); assay: microbe, parasite or virus in culture; assay type: cell-based, Vibrio splendidus
Description: as §1

[4] = tested on: V. aestuerianus (CIP 102971); assay: microbe, parasite or virus in culture; assay type: cell-based, Vibrio aestueranius; conditions: for MBC: read-out: MBC Vibrio aestueranius
Description: as §1

[5] = tested on: V. anguillarum (CIP 64.14); assay: microbe, parasite or virus in culture; assay type: cell-based, Vibrio anguillarum
Description: as §1

[6] = tested on: V. parahaemolyticus (CIP 73.30); assay: microbe, parasite or virus in culture; assay type: cell-based, Vibrio parahaemolyticus; conditions: for MIC: read-out: MIC Vibrio parahaemo-lyticus
Description: as §1

[7] = tested on: Aeromonas salmonicida (CIP 103209T); assay: Liquid growth inhibition assay (MIC/MBC); assay type: cell-based; conditions: TSB, triplicate, interval [a]-[b], '-' = not active
Description: as §1

[8] = tested on: Enteroccocus faecalis (CIP 76.117); assay: Liquid growth inhibition assay (MIC/MBC); assay type: cell-based; conditions: Enterococcus faecalis, CIP76, poor broth, triplicate, interval [a]-[b], '-' = not active
Description: as §1

[9] = tested on: Halomonas aquamarina (CIP 105454T); assay: Liquid growth inhibition assay (MIC/MBC); assay type: cell-based; conditions: Vreelandella aquamarina; HMB, starting OD600 0.001, 16 h, triplicate; interval [a]-[b]; '-' = not active
Description: as §1

[10] = tested on: Lactococcus garvieae (CIP 104369); assay: Liquid growth inhibition assay (MIC/MBC); assay type: cell-based; conditions: CIP104369, BHI, triplicate, interval [a]-[b], '-' = not active
Description: as §1

human red blood cells = assay type: cell-based
Description: The haemolytic activity of the synthetic peptides was determined in triplicate on human red blood cells (RBCs) as described by Duval and collaborators. Briefly, RBCs were pelleted and washed three times in phosphate-buffered saline (PBS). Then, they were resuspended in PBS to obtain a 1% solution of RBC. Ten microliters of peptide solution were incubated with 90 µL of the RBC 1% solution for 1 h at 37 °C. The peptides were diluted in PBS and tested at different concentrations: 5 µM, 20 µM, 50 µM and 100 µM. Haemolytic activity was determined by measuring the OD at 415 nm. Zero haemolysis and total (100%) haemolysis were determined with PBS and 1% Triton X-100 solutions, respectively.

**Q.** With `CN(C)[C@@H]1C(O)=C(C(N)=O)C(=O)[C@@]2(O)C(O)=C3C(=O)c4c(O)cccc4[C@@](C)(O)[C@H]3[C@H](O)[C@@H]12` [Ox, Oxytetracycline] as the compound, how does the MIC ([1]; Escherichia coli, CIP54, poor broth, starting OD600 0.001, 16 h, triplicate, interval [a]-[b], '-' = not active) read?
**A.** ≤ 5 µM

**Q.** And the MBC ([1]; Escherichia coli, CIP54, poor broth, triplicate, interval [a]-[b], '-' = not active)?
**A.** ≤ 5 µM

**Q.** And the MIC ([2]; Vibrio alginolyticus, CIP109819, saline poor broth, starting OD600 0.001, growth monitored 16 h, triplicate, interval [a]-[b], b = first concentration with 100% growth inhibition, peptides 5-50 µM, pairs 5-20 µM, oxytetracycline 5 and 10 µM, '-' = not active)?
**A.** ≤ 5 µM

**Q.** What about the MBC ([2]; Vibrio alginolyticus, CIP109819, saline poor broth, triplicate, interval [a]-[b], b = first concentration that killed 100% of the bacteria, '-' = not active) of the same compound?
**A.** ≤ 5 µM

**Q.** What about the MIC ([2]; saline poor broth, starting OD600 0.001, growth monitored 16 h, triplicate, interval [a]-[b], b = first concentration with 100% growth inhibition, peptides 5-50 µM, pairs 5-20 µM, oxytetracycline 5 and 10 µM, '-' = not active) of the same compound?
**A.** ≤5 µM

**Q.** And the MIC ([3]; Vibrio splendidus, CIP107715, saline poor broth, starting OD600 0.001, 16 h, triplicate, interval [a]-[b], '-' = not active)?
**A.** ≤ 5 µM

**Q.** And the MBC ([3]; Vibrio splendidus, CIP107715, saline poor broth, triplicate, interval [a]-[b], '-' = not active)?
**A.** ≤ 5 µM

**Q.** And the MIC ([3]; saline poor broth, starting OD600 0.001, 16 h, triplicate, interval [a]-[b], '-' = not active, read-out: MIC Vibrio splendidus)?
**A.** ≤5 µM

**Q.** What about the MIC ([4]; Vibrio, CIP102971, saline poor broth, starting OD600 0.001, 16 h, triplicate, interval [a]-[b], '-' = not active, read-out: MIC Vibrio aestueranius) of the same compound?
**A.** ≤ 5 µM

**Q.** And the MBC ([4]; Vibrio, CIP102971, saline poor broth, triplicate, interval [a]-[b], '-' = not active)?
**A.** ≤ 5 µM

**Q.** What about the MIC ([5]; Vibrio anguillarum, CIP64, saline poor broth, starting OD600 0.001, 16 h, triplicate, interval [a]-[b], '-' = not active) of the same compound?
**A.** ≤ 5 µM

**Q.** And the MBC ([5]; Vibrio anguillarum, CIP64, saline poor broth, triplicate, interval [a]-[b], '-' = not active)?
**A.** ≤ 5 µM

**Q.** And the MIC ([6]; Vibrio parahaemolyticus, CIP73, saline poor broth, starting OD600 0.001, 16 h, triplicate, interval [a]-[b], '-' = not active)?
**A.** ≤ 5 µM

**Q.** And the MBC ([6]; Vibrio parahaemolyticus, CIP73, saline poor broth, triplicate, interval [a]-[b], '-' = not active, read-out: MBC Vibrio parahaemo-lyticus)?
**A.** ≤ 5 µM

**Q.** What about the MIC ([6]; saline poor broth, starting OD600 0.001, 16 h, triplicate, interval [a]-[b], '-' = not active) of the same compound?
**A.** ≤5 µM

**Q.** What about the MIC ([7]; starting OD600 0.001, 16 h) of the same compound?
**A.** ≤ 5 µM

**Q.** And the MBC [7]?
**A.** ≤ 5 µM

**Q.** What about the MIC ([8]; starting OD600 0.001, 16 h) of the same compound?
**A.** ≤ 5 µM

**Q.** And the MBC [8]?
**A.** 5 to 10 µM

**Q.** What about the MIC [9] of the same compound?
**A.** > 10 µM

**Q.** What about the MIC ([10]; starting OD600 0.001, 16 h) of the same compound?
**A.** ≤ 5 µM

**Q.** What about the MBC [10] of the same compound?
**A.** > 10 µM

**Q.** For ASSFLTPRLSSLGKRSWAV [AV19], which “MBC Vibrio splendidus” value ([3]; CIP 107715, 16 h) is on record?
**A.** 10 to 20 µM

**Q.** What about the “MIC Vibrio splendidus” value ([3]; CIP 107715, 16 h) of the same compound?
**A.** 10 to 20 µM

**Q.** And the “MBC Vibrio parahaemo-lyticus” value ([6]; CIP 73, 16 h)?
**A.** 20 to 50 µM

**Q.** What about the “MIC Vibrio parahaemo-lyticus” value ([6]; CIP 73, 16 h) of the same compound?
**A.** 10 to 20 µM

**Q.** And the “concentrations at which haemolytic” value (human red blood cells)?
**A.** 50 to 100 µM

**Q.** Which “MBC Escherichia coli” value ([1]; CIP 54, 16 h) does the source give for GFCNFMHLKPISRELRRELYGRTRRRRK [GK28] here?
**A.** 20 to 50 µM

**Q.** What about the MIC ([1]; CIP 54, 16 h) of the same compound?
**A.** ≤5 µM

**Q.** And the MIC ([2]; CIP 109819, 16 h)?
**A.** ≤5 µM

**Q.** And the “MBC Vibrio alginolyticus” value ([2]; saline poor broth, triplicate, interval [a]-[b], b = first concentration that killed 100% of the bacteria, '-' = not active)?
**A.** 20 to 50 µM

**Q.** And the MBC ([3]; CIP 107715, 16 h, read-out: MBC Vibrio splendidus)?
**A.** ≤5 µM

**Q.** What about the MIC ([3]; CIP 107715, 16 h, read-out: MIC Vibrio splendidus) of the same compound?
**A.** ≤5 µM

**Q.** And the “MIC Vibrio aestueranius” value ([4]; CIP 102971, 16 h)?
**A.** 10 to 20 µM

**Q.** And the MBC ([4]; CIP 102971, 16 h)?
**A.** >50 µM

**Q.** What about the “MBC Vibrio anguillarum” value ([5]; CIP 64, 16 h) of the same compound?
**A.** 20 to 50 µM

**Q.** What about the “MIC Vibrio anguillarum” value ([5]; CIP 64, 16 h) of the same compound?
**A.** 10 to 20 µM

**Q.** What about the “MBC Vibrio parahaemo-lyticus” value ([6]; CIP 73, 16 h) of the same compound?
**A.** 10 to 20 µM

**Q.** And the MIC ([6]; CIP 73, 16 h)?
**A.** ≤5 µM

**Q.** With NYWLLVLRRLLITKKVMWF [NF19] as the compound, how does the “MBC Vibrio splendidus” value ([3]; CIP 107715, 16 h) read?
**A.** 10 to 20 µM

**Q.** And the “MIC Vibrio splendidus” value ([3]; CIP 107715, 16 h)?
**A.** 5 to 10 µM

**Q.** And the “concentrations at which haemolytic” value (human red blood cells)?
**A.** 50 to 100 µM
